“And” between values parts separate entries of the source, which are not always exact repeats. Equal entries are not always repeated. Toxic doses and inconclusive results are not listed. Peptide text beside a SMILES is read from it. * marks the point of attachment. For = O=C*
Test system: P388 leukemia ip, CD2F1 mice, survival T/C
Experiment: NCI In Vivo Anticancer Drug Screen. Data for tumor model P388 Leukemia (intraperitoneal) in CD2F1 (CDF1) mice
Conditions: endpoint: median survival time, higher = longer survival
Procedure, shortened: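 Mice carrying the transplanted tumor received test compound or vehicle. Survival was recorded in each group, and the value is the treated-group measurement divided by that of the vehicle-treated control group.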

[1] = dose: 50.0 mg/kg/injection, schedule: Q01DX005 (ip), vehicle: saline with Tween-80
[2] = dose: 100.0 mg/kg/injection, schedule: Q01DX005 (ip), vehicle: saline with Tween-80
[3] = dose: 50.0 mg/kg/injection, schedule: Q01DX005 (ip), vehicle: Klucel (hydroxypropylcellulose) (HPC)
[4] = dose: 100.0 mg/kg/injection, schedule: Q01DX005 (ip), vehicle: Klucel (hydroxypropylcellulose) (HPC)
[5] = dose: 200.0 mg/kg/injection, schedule: Q01DX005 (ip), vehicle: Klucel (hydroxypropylcellulose) (HPC)
[6] = dose: 12.5 mg/kg/injection, schedule: Q01DX005 (ip), vehicle: Klucel (hydroxypropylcellulose) (HPC)
[7] = dose: 60.0 mg/kg/injection, schedule: Q01DX005 (ip), vehicle: saline with Tween-80
[8] = dose: 120.0 mg/kg/injection, schedule: Q01DX005 (ip), vehicle: saline with Tween-80
[9] = dose: 240.0 mg/kg/injection, schedule: Q01DX005 (ip), vehicle: saline with Tween-80
[10] = dose: 25.0 mg/kg/injection, schedule: Q01DX009 (ip), vehicle: saline with Tween-80
[11] = dose: 50.0 mg/kg/injection, schedule: Q01DX009 (ip), vehicle: saline with Tween-80
[12] = dose: 100.0 mg/kg/injection, schedule: Q01DX009 (ip), vehicle: saline with Tween-80
[13] = dose: 0.78 mg/kg/injection, schedule: Q01DX005 (ip), vehicle: saline with Tween-80
[14] = dose: 1.56 mg/kg/injection, schedule: Q01DX005 (ip), vehicle: saline with Tween-80
[15] = dose: 50.0 mg/kg/injection, schedule: Q01DX009 (ip), vehicle: Klucel (hydroxypropylcellulose) (HPC)
[16] = dose: 100.0 mg/kg/injection, schedule: Q01DX009 (ip), vehicle: Klucel (hydroxypropylcellulose) (HPC)
[17] = dose: 200.0 mg/kg/injection, schedule: Q01DX009 (ip), vehicle: Klucel (hydroxypropylcellulose) (HPC)
[18] = dose: 50.0 mg/kg/injection, schedule: Q01DX009 (ip), vehicle: saline
[19] = dose: 100.0 mg/kg/injection, schedule: Q01DX009 (ip), vehicle: saline
[20] = dose: 12.5 mg/kg/injection, schedule: Q01DX009 (ip), vehicle: Klucel (hydroxypropylcellulose) (HPC)
[21] = dose: 25.0 mg/kg/injection, schedule: Q01DX009 (ip), vehicle: Klucel (hydroxypropylcellulose) (HPC)

CCC1(c2ccccc2)CCCC/C1=N/Nc1ccc([N+](=O)[O-])cc1[N+](=O)[O-] (stereo not drawn)
T/C (dose: 100.0 mg/kg/injection, schedule: Q04DX003 (ip), vehicle: Klucel (hydroxypropylcellulose) (HPC)): 91 % of control | T/C (dose: 200.0 mg/kg/injection, schedule: Q04DX003 (ip), vehicle: Klucel (hydroxypropylcellulose) (HPC)): 92 % of control | T/C (dose: 400.0 mg/kg/injection, schedule: Q04DX003 (ip), vehicle: Klucel (hydroxypropylcellulose) (HPC)): 99 % of control

O/C(=C\C(=S)S)c1ccccc1
T/C (dose: 1.56 mg/kg/injection, schedule: Q04DX003 (ip), vehicle: Klucel (hydroxypropylcellulose) (HPC)): 96 % of control | T/C (dose: 3.12 mg/kg/injection, schedule: Q04DX003 (ip), vehicle: Klucel (hydroxypropylcellulose) (HPC)): 96 % of control | T/C (dose: 6.25 mg/kg/injection, schedule: Q04DX003 (ip), vehicle: Klucel (hydroxypropylcellulose) (HPC)): 97 % of control

CCOc1c(N=Nc2ccccc2Cl)c(-c2ccccc2)nn1C(=S)S
T/C [1]: 105 % of control | T/C [2]: 99 % of control

CCCCC1(CCN(CC)c2ccccc2)C(=O)NC(=O)NC1=O
T/C [3]: 101 % of control | T/C [4]: 99 % of control | T/C [5]: 99 % of control

CC(CNC(=O)CCBr)NC(=O)CCBr (stereo not drawn)
T/C (dose: 12.5 mg/kg/injection, schedule: Q01DX009 (ip), vehicle: saline): 105 % of control | T/C (dose: 25.0 mg/kg/injection, schedule: Q01DX009 (ip), vehicle: saline): 116 % of control | T/C (dose: 400.0 mg/kg/injection, schedule: Q01DX009 (ip), vehicle: suspension in saline): 116 % of control

CCC1C2Cc3ccc(O)cc3C1(C)CCN2C (stereo not drawn)
T/C [6]: 100 % of control | T/C (dose: 25.0 mg/kg/injection, schedule: Q01DX005 (ip), vehicle: Klucel (hydroxypropylcellulose) (HPC)): 99 % of control | T/C [3]: 102 % of control and 107 % of control

O=C(Nc1cc(Cl)c(Cl)cc1Cl)N1CCOCC1
T/C [7]: 104 % of control | T/C [8]: 105 % of control | T/C [9]: 102 % of control

O=C(Nc1ccccc1C(=O)O)c1cc([N+](=O)[O-])cc([N+](=O)[O-])c1
T/C [10]: 114 % of control | T/C [11]: 113 % of control | T/C [12]: 109 % of control

CNC(=O)C1OC(n2cnc3c(N)ncnc32)C(O)C1O (stereo not drawn)
T/C [13]: 109 % of control and 110 % of control and 120 % of control | T/C [14]: 113 % of control and 114 % of control and 116 % of control | T/C (dose: 3.13 mg/kg/injection, schedule: Q01DX005 (ip), vehicle: saline with Tween-80): 117 % of control

CC1C2C=CC1C(c1c3ccc(=O)cc-3oc3cc(O)ccc13)C2C(=O)O (stereo not drawn)
T/C [7]: 99 % of control | T/C [8]: 100 % of control | T/C [9]: 101 % of control

Cn1c2ccccc2c(=Nc2ccc(S(=O)(=O)N=C(N)N)cc2)c2ccccc21
T/C [1]: 106 % of control | T/C [2]: 96 % of control

O=C(O)CC1CCC1CC(=O)O (stereo not drawn)
T/C [11]: 95 % of control | T/C [12]: 95 % of control

COC(=O)c1ccc(SCCC(=O)CN2C(=O)c3ccccc3C2=O)cc1
T/C [15]: 94 % of control | T/C [16]: 93 % of control | T/C [17]: 86 % of control

Cc1ccc(Br)c(C(O)(C(F)(F)F)C(F)(F)F)c1C
T/C [15]: 107 % of control | T/C [16]: 106 % of control

O=C(O)c1cc(-c2ccccc2Cl)nc2cc3ccccc3cc12
T/C [15]: 111 % of control | T/C [16]: 101 % of control | T/C [17]: 101 % of control

CCC[CH2][Sn]1([CH2]CCC)[O]c2ccccc2[O]1
T/C (dose: 0.39 mg/kg/injection, schedule: Q01DX005 (ip), vehicle: saline with Tween-80): 103 % of control | T/C [13]: 106 % of control | T/C [14]: 109 % of control and 124 % of control | T/C (dose: 3.12 mg/kg/injection, schedule: Q01DX005 (ip), vehicle: Klucel (hydroxypropylcellulose) (HPC)): 100 % of control | T/C (dose: 3.12 mg/kg/injection, schedule: Q01DX005 (ip), vehicle: saline with Tween-80): 123 % of control | T/C (dose: 6.25 mg/kg/injection, schedule: Q01DX005 (ip), vehicle: Klucel (hydroxypropylcellulose) (HPC)): 105 % of control | T/C [6]: 107 % of control

CC(C)OP(=S)(S)OC(C)C
T/C [18]: 114 % of control | T/C [19]: 118 % of control | T/C (dose: 200.0 mg/kg/injection, schedule: Q01DX009 (ip), vehicle: saline): 97 % of control

O=S1(=O)CC2(N3CCOCC3)C3CCC(C3)C21 (stereo not drawn)
T/C (dose: 50.0 mg/kg/injection, schedule: Q04DX003 (ip), vehicle: saline with Tween-80): 99 % of control and 101 % of control | T/C (dose: 100.0 mg/kg/injection, schedule: Q04DX003 (ip), vehicle: saline with Tween-80): 100 % of control and 104 % of control | T/C (dose: 200.0 mg/kg/injection, schedule: Q04DX003 (ip), vehicle: saline with Tween-80): 101 % of control and 104 % of control

CN(C)CC/C=C1/c2ccccc2C=Nc2ccc(Cl)cc21
T/C (dose: 6.25 mg/kg/injection, schedule: Q01DX009 (ip), vehicle: Klucel (hydroxypropylcellulose) (HPC)): 116 % of control | T/C [20]: 108 % of control | T/C [21]: 99 % of control

O=C(Cc1ccncc1)c1cccnc1
T/C (dose: 12.5 mg/kg/injection, schedule: Q01DX001 (ip), vehicle: saline): 101 % of control | T/C (dose: 25.0 mg/kg/injection, schedule: Q01DX001 (ip), vehicle: saline): 102 % of control | T/C (dose: 50.0 mg/kg/injection, schedule: Q01DX001 (ip), vehicle: saline): 107 % of control | T/C (dose: 100.0 mg/kg/injection, schedule: Q04DX002 (ip), vehicle: saline): 98 % of control | T/C (dose: 200.0 mg/kg/injection, schedule: Q04DX002 (ip), vehicle: saline): 99 % of control | T/C (dose: 400.0 mg/kg/injection, schedule: Q04DX002 (ip), vehicle: saline): 105 % of control

CC(=O)Oc1ccc2ccccc2c1-c1ccccn1
T/C (dose: 12.5 mg/kg/injection, schedule: Q01DX001 (ip), vehicle: saline + alcohol): 101 % of control | T/C (dose: 25.0 mg/kg/injection, schedule: Q01DX001 (ip), vehicle: saline + alcohol): 99 % of control | T/C (dose: 50.0 mg/kg/injection, schedule: Q01DX001 (ip), vehicle: saline + alcohol): 100 % of control

N#CC1C(=O)NC(=O)C(C#N)C1CCc1ccccc1 (stereo not drawn)
T/C (dose: 50.0 mg/kg/injection, schedule: Q01DX009 (ip), vehicle: distilled water + alcohol): 103 % of control | T/C (dose: 100.0 mg/kg/injection, schedule: Q01DX009 (ip), vehicle: distilled water + alcohol): 100 % of control | T/C (dose: 200.0 mg/kg/injection, schedule: Q01DX009 (ip), vehicle: distilled water + alcohol): 100 % of control

CSCCC(NC=O)C(=O)NC(C(=O)O)C(C)C (stereo not drawn) (For-Met-Val-OH; configuration not given here)
T/C [3]: 101 % of control | T/C [4]: 97 % of control | T/C [5]: 101 % of control

Cc1cc(NCCCNCCCNc2cc(C)nc3cc(N)ccc23)c2ccc(N)cc2n1
T/C (dose: 12.5 mg/kg/injection, schedule: Q01DX009 (ip), vehicle: other): 160 % of control

C=CCN(CC=C)Sc1cccc([N+](=O)[O-])c1
T/C [18]: 109 % of control | T/C [19]: 117 % of control

CC(=O)C(C)C(C)=O
T/C (dose: 6.25 mg/kg/injection, schedule: Q01DX009 (ip), vehicle: saline with Tween-80): 97 % of control | T/C (dose: 12.5 mg/kg/injection, schedule: Q01DX009 (ip), vehicle: saline with Tween-80): 93 % of control | T/C [10]: 100 % of control | T/C [11]: 107 % of control | T/C [12]: 108 % of control | T/C (dose: 200.0 mg/kg/injection, schedule: Q01DX009 (ip), vehicle: saline with Tween-80): 103 % of control | T/C (dose: 400.0 mg/kg/injection, schedule: Q01DX009 (ip), vehicle: saline with Tween-80): 110 % of control

C=CCCC(=O)OC(C)(C)C
T/C [20]: 102 % of control | T/C [21]: 101 % of control | T/C [15]: 104 % of control | T/C [16]: 101 % of control | T/C [17]: 103 % of control

CCOC(=O)c1ccnc2ccc(OCCN(CC)CC)cc12
T/C (dose: 50.0 mg/kg/injection, schedule: Q01DX005 (ip), vehicle: saline): 96 % of control | T/C (dose: 100.0 mg/kg/injection, schedule: Q01DX005 (ip), vehicle: saline): 100 % of control | T/C (dose: 200.0 mg/kg/injection, schedule: Q01DX005 (ip), vehicle: saline): 101 % of control

O=S(=O)(CC(O)C(Cl)(Cl)Cl)N1CCCCC1 (stereo not drawn)
T/C [15]: 101 % of control | T/C [16]: 95 % of control | T/C [17]: 100 % of control

Source: PubChem BioAssay AID330 (DTP/NCI, 2004)
